Laboratory results: ChEMBL document CHEMBL1201862, “PubChem BioAssay data set” (2004)
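Exposure lasted 48 hours, with cells grown in 96-well plates and compounds tested at five concentrations. Here, GI50 denotes the concentration required for 50% inhibition of growth.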 Calls of active or inactive are those of the source. Rule as the data show it: active = GI50 up to about 1.1 µM and inactive = higher.

Legend:
Assay in all cases: NCI-60 cell line screen, 48 h
[1] = test system: Hs-578T
[2] = test system: MDA-N
[3] = test system: BT-549
[4] = test system: SNB-78
[5] = test system: DMS-273
[6] = test system: M19-MEL
[7] = test system: XF498
[8] = test system: HOP-18

Row | Structure (SMILES) | GI50 [1] | GI50 [2] | GI50 [3] | GI50 [4] | GI50 [5] | GI50 [6] | GI50 [7] | GI50 [8]
1 | Cc1cc(N2CCN(C)CC2)n2nc(-c3ccc(Cl)cc3)nc2n1 | > 100 µM (inactive) | 92.9 µM (inactive) | 99.1 µM (inactive) | – | – | – | – | –
2 | Clc1ccc(OCc2nnc3n2N=C(c2ccccc2)CS3)c(Cl)c1 | – | – | – | 9.42 µM (inactive) | 5.56 µM (inactive) | > 100 µM (inactive) | > 100 µM (inactive) | –
3 | Cc1cc(C(F)(F)F)cc(-n2nc(NS(=O)(=O)c3cc(C)c(Cl)cc3S)nc2N)n1 | 41 µM (inactive) | 52.8 µM (inactive) | – | – | – | – | – | –
4 | O=S1(=O)CCN(Cc2ccccn2)CC1 | > 100 µM (inactive) | > 100 µM (inactive) | > 100 µM (inactive) | – | – | – | – | –
5 | O=C(O)C(=O)Cc1ccc2c(c1)OCO2 | – | > 100 µM (inactive) | > 100 µM (inactive) | – | – | – | – | –
6 | O=C(/C=C/c1ccc2c(c1)OCO2)NCc1ccco1 | > 100 µM (inactive) | > 100 µM (inactive) | 25.9 µM (inactive) | – | – | – | – | –
7 | COc1ccc(C(=O)CC(c2ccc(OC)c(OC)c2)c2c(O)oc3ccccc3c2=O)cc1OC (stereo unspecified) | > 100 µM (inactive) | > 100 µM (inactive) | > 100 µM (inactive) | – | – | – | – | –
8 | COc1ccc(C2c3cc4c(cc3OC(N3CCCCC3)C2C)OCO4)cc1 (stereo unspecified) | 33.6 µM (inactive) | > 100 µM (inactive) | – | – | – | – | – | –
9 | Cc1nn(C(=O)c2ccccc2O)c2c1C(c1ccc([N+](=O)[O-])cc1)SC(=N)N2 (stereo unspecified) | 0.676 µM (active) | 2.89 µM (inactive) | 7.8 µM (inactive) | – | – | – | – | –
10 | CC(=O)C1=NN(c2ccccc2)C2(S1)SC(c1ccccc1)(c1ccccc1)c1ccccc12 (stereo unspecified) | – | – | – | 30.8 µM (inactive) | 17.6 µM (inactive) | 47.8 µM (inactive) | – | > 100 µM (inactive)
11 | Oc1nc2cc3nc(O)c(O)nc3cc2nc1O | > 100 µM (inactive) | – | > 100 µM (inactive) | – | – | – | – | –
12 | COC(=O)CC1C=CC(C)(OC)OO1 (stereo unspecified) | > 100 µM (inactive) | > 100 µM (inactive) | > 100 µM (inactive) | – | – | – | – | –
13 | CCOC(=O)C1CCC(=O)N1C(=O)c1cccc(Cl)c1 (stereo unspecified) | > 100 µM (inactive) | > 100 µM (inactive) | > 100 µM (inactive) | – | – | – | – | –
14 | COC(=O)CC(NC(=O)OCc1ccccc1)C(C(=O)OCc1ccccc1)C(C)(OC)OC (stereo unspecified) | – | – | – | – | 33.3 µM (inactive) | 27.7 µM (inactive) | 14.1 µM (inactive) | –
15 | COP(=O)(OC)C(C)(C)NC(=O)NC(F)(F)F | 31.1 µM (inactive) | > 100 µM (inactive) | > 100 µM (inactive) | – | – | – | – | –
16 | CCNC1=C(NC(=O)c2ccccc2)C(=O)c2ccccc2C1=O | 38.7 µM (inactive) | 4.9 µM (inactive) | 90.4 µM (inactive) | – | – | – | – | –

Row | Structure (SMILES) | GI50 [1] | GI50 [2] | GI50 [3] | GI50 [4] | GI50 [5] | GI50 [6] | GI50 [7] | GI50 [8]
17 | Cc1ccc(N)c(S)c1 | 38 µM (inactive) | 14.9 µM (inactive) | 18.6 µM (inactive) | – | – | – | – | –
18 | CN(C)CCCNc1ccc2nnn3c4ccc(OC(=O)c5ccccc5)cc4c(=O)c1c23 | 18.3 µM (inactive) | 13.8 µM (inactive) | 16.8 µM (inactive) | – | – | – | – | –
19 | CCCP1(=O)C=C(C)C(=C(Cl)Cl)C(C)=C1 (stereo unspecified) | – | – | – | 57.3 µM (inactive) | – | 47.9 µM (inactive) | – | > 100 µM (inactive)
20 | CC/C=C\C/C=C\C1CC(=O)NCCCNCCCCN1 (stereo unspecified) | – | – | – | > 100 µM (inactive) | > 100 µM (inactive) | > 100 µM (inactive) | – | –
21 | CCCCCCCCCCCC(=O)OCCOCCOCCOCCOCCOCc1ccccc1 | – | – | – | > 100 µM (inactive) | > 100 µM (inactive) | > 100 µM (inactive) | – | > 100 µM (inactive)
22 | O=C(O)c1nc2ccc(C(F)(F)F)cc2nc1NCc1ccc(F)cc1 | – | 28 µM (inactive) | 25.9 µM (inactive) | – | – | – | – | –
23 | Cc1cccc(Br)[n+]1[O-] | > 100 µM (inactive) | – | > 100 µM (inactive) | – | – | – | – | –
24 | N[C@@H](Cc1ccc2oc3cc(=O)c4ccccc4c-3nc2c1)C(=O)O | 45.8 µM (inactive) | 16.6 µM (inactive) | – | – | – | – | – | –
25 | Cc1cccc2c1CC(C1OC(=O)c3ccccc31)C2=O (stereo unspecified) | > 100 µM (inactive) | > 100 µM (inactive) | > 100 µM (inactive) | – | – | – | – | –
26 | C/C=C\C(C)=C/C(C)C(=O)CC(O)CC1CC(=O)NC(=O)C1 (stereo unspecified) | 4.09 µM (inactive) | 19.5 µM (inactive) | 34.2 µM (inactive) | – | – | – | – | –
27 | O=C1CC2(CCNCC2)C(=O)N1N1CCCC1 | – | > 100 µM (inactive) | > 100 µM (inactive) | – | – | – | – | –
28 | O=CC[C@H]1C(=O)C[C@@H]2CCC[C@@H]21 | – | – | – | > 100 µM (inactive) | – | 56.2 µM (inactive) | > 100 µM (inactive) | –
29 | COc1ccc(N2C(=O)CC(=O)N(NC(=O)C(C)Oc3ccccc3C)C2=S)cc1 (stereo unspecified) | > 100 µM (inactive) | > 100 µM (inactive) | > 100 µM (inactive) | – | – | – | – | –
30 | Cc1nnc2c3nnc(C)n3c3ccccc3n12 | – | – | – | > 100 µM (inactive) | > 100 µM (inactive) | – | > 100 µM (inactive) | –
31 | NC(=O)NCCCC(NC(=O)OCCCCCn1ccc(=O)[nH]c1=O)C(=O)O (stereo unspecified) | > 100 µM (inactive) | > 100 µM (inactive) | > 100 µM (inactive) | – | – | – | – | –
32 | O=c1cc(NNc2cccc3ccccc23)[nH]c(=O)[nH]1 | 26.2 µM (inactive) | 12.1 µM (inactive) | 16.4 µM (inactive) | – | – | – | – | –
